64 compounds from ChEMBL document CHEMBL2029208 (Bioorg Med Chem, 2012) can be followed below.

Converted amounts (≈) assume the structure as drawn.

The subject of this test is Mycobacterium tuberculosis. Put plainly: microbe, parasite or virus in culture. The test is classed as functional. The note with it: H37Ra.

On to `CCCCOCCCCCNC(=O)NC12CC3CC(CC(C3)C1)C2`, for which the MIC stood at 2.1 µg/mL (≈ 6.24 µM).

`CCC(=O)Oc1ccc(NC(=O)NC23CC4CC(CC(C4)C2)C3)cc1` registered an MIC of over 68 µg/mL.

In turn, `CCC(=O)Oc1cccc(NC(=O)NC23CC4CC(CC(C4)C2)C3)c1` came in with an MIC of 17 µg/mL (≈ 49.6 µM).

On to `CC(C)Oc1cc(F)c(CO[C@H]2CC[C@H](NC(=O)NC34CC5CC(CC(C5)C3)C4)CC2)c(F)c1`, for which the MIC was 11.9 µg/mL (≈ 25 µM).

Take `CC(C)Oc1cc(F)c(CO[C@H]2CC[C@@H](NC(=O)NC34CC5CC(CC(C5)C3)C4)CC2)c(F)c1`: the MIC was determined as 6.7 µg/mL (≈ 14.1 µM).

In turn, `O=C(NC12CC3CC(CC(C3)C1)C2)N[C@H]1CC[C@H](Oc2cc(F)cc(F)c2)CC1` yielded an MIC of over 41 µg/mL.

`CCOC(=O)C(C)Oc1ccc(NC(=O)NC23CC4CC(CC(C4)C2)C3)cc1` (centres undefined) came in with an MIC of 19 µg/mL (≈ 49.2 µM).

In turn, `COc1ccc(O[C@H]2CC[C@H](NC(=O)NC34CC5CC(CC(C5)C3)C4)CC2)cc1` had an MIC of over 80 µg/mL.

Turning to `CCOCCOCCOc1ccc(NC(=O)NC23CC4CC(CC(C4)C2)C3)cc1`, the MIC turned out to be 10 µg/mL (≈ 24.8 µM).

In the case of `O=C(NCC#CCOc1ccc(F)cc1)NC12CC3CC(CC(C3)C1)C2`, the MIC turned out to be 0.7 µg/mL (≈ 1.96 µM).

As to `O=C(Nc1cccc(C(=O)OCc2ccccc2)c1)NC12CC3CC(CC(C3)C1)C2`, the MIC stood at 0.3 µg/mL (≈ 0.742 µM).

For `CCCCOC(=O)CCCCCCCCCCCNC(=O)NC12CC3CC(CC(C3)C1)C2`, the MIC is 5.61 µg/mL (≈ 12.5 µM).

In turn, `CN1CCN(CCCOc2ccc(NC(=O)NC34CC5CC(CC(C5)C3)C4)cc2)CC1` yielded an MIC of 62 µg/mL (≈ 145 µM).

Compound `O=C(NC12CC3CC(CC(C3)C1)C2)N[C@H]1CC[C@H](O)CC1` displayed an MIC of over 58 µg/mL.

`O=C(Nc1cccc(OCCCCN2CCOCC2)c1)NC12CC3CC(CC(C3)C1)C2` returned an MIC of 21 µg/mL (≈ 49.1 µM).

Consider `CCCCCCCOCCNC(=O)NC12CC3CC(CC(C3)C1)C2`, for which the MIC is 2.1 µg/mL (≈ 6.24 µM).

The compound `CO[C@H]1CC[C@H](NC(=O)NC23CC4CC(CC(C4)C2)C3)CC1` displayed an MIC of over 61 µg/mL.

With `O=C(Nc1ccc(OCCCCN2CCOCC2)cc1)NC12CC3CC(CC(C3)C1)C2`, the MIC came out at 21 µg/mL (≈ 49.1 µM).

Take `O=C(Nc1cccc(C(=O)N2CCC(N3CCOCC3)CC2)c1)NC12CC3CC(CC(C3)C1)C2`: the MIC is over 93 µg/mL.

As to `CO[C@H]1CC[C@@H](NC(=O)NC23CC4CC(CC(C4)C2)C3)CC1`, the MIC is over 61 µg/mL.

`O=C(Nc1ccc(OC(=O)c2ccccc2)cc1)NC12CC3CC(CC(C3)C1)C2` registered an MIC of 39 µg/mL (≈ 99.9 µM).

The compound `C[C@H](NC(=O)Cc1ccc(NC(=O)NC23CC4CC(CC(C4)C2)C3)cc1)C(=O)N[C@@H](Cc1c[nH]c2ccccc12)C(=O)O` displayed an MIC of 66 µg/mL (≈ 113 µM).

The compound `CC(C)(C)OC(=O)N1CCN(CCCOc2ccc(NC(=O)NC34CC5CC(CC(C5)C3)C4)cc2)CC1` showed an MIC of 6.21 µg/mL (≈ 12.1 µM).

`O=C(Nc1ccccc1OCCCN1CCOCC1)NC12CC3CC(CC(C3)C1)C2` returned an MIC of 21 µg/mL (≈ 50.8 µM).

As for `O=C(Nc1ccc(OC2CCOC2=O)cc1)NC12CC3CC(CC(C3)C1)C2` (centres undefined), the MIC is over 37 µg/mL.

`CCc1ccc(OCCOCCOCCCCCNC(=O)NC23CC4CC(CC(C4)C2)C3)cc1`: the MIC was determined as 24 µg/mL (≈ 50.8 µM).

Compound `O=C(Nc1cccc(Oc2ccc(F)cc2)c1)NC12CC3CC(CC(C3)C1)C2` gave an MIC of 2.5 µg/mL (≈ 6.57 µM).

Compound `COC(=O)c1ccc(NC(=O)NC23CC4CC(CC(C4)C2)C3)cc1` came in with an MIC of 2 µg/mL (≈ 6.09 µM).

In turn, `CCOCCOCCOc1cccc(NC(=O)NC23CC4CC(CC(C4)C2)C3)c1` registered an MIC of 2.52 µg/mL (≈ 6.26 µM).

Take `CC(=O)c1ccccc1NC(=O)NC12CC3CC(CC(C3)C1)C2`: the MIC was over 3.1 µg/mL.

`O=C(NC12CC3CC(CC(C3)C1)C2)N[C@H]1CC[C@@H](OCc2c(F)cccc2F)CC1` returned an MIC of 42 µg/mL (≈ 100 µM).

As to `O=C(Nc1ccc(Oc2ccc(F)cc2)cc1)NC12CC3CC(CC(C3)C1)C2`, the MIC was determined as 0.6 µg/mL (≈ 1.58 µM).

Regarding `COC(=O)c1cccc(NC(=O)NC23CC4CC(CC(C4)C2)C3)c1`, the MIC turned out to be 1.2 µg/mL (≈ 3.65 µM).

The compound `O=C(Nc1cccc(OCCCN2CCOCC2)c1)NC12CC3CC(CC(C3)C1)C2` displayed an MIC of 32 µg/mL (≈ 77.4 µM).

Regarding `O=C(NC12CC3CC(CC(C3)C1)C2)N[C@H]1CC[C@H](Oc2cccc(F)c2)CC1`, the MIC amounted to 14 µg/mL (≈ 36.2 µM).

In turn, `COC(=O)c1cc(NC(=O)NC23CC4CC(CC(C4)C2)C3)ccc1O` displayed an MIC of 1.1 µg/mL (≈ 3.19 µM).

On to `CC(C)c1ccc(NC(=O)NC2CCCCC2)cc1`, for which the MIC was 3.25 µg/mL (≈ 12.5 µM).

For the compound `O=C(NC12CC3CC(CC(C3)C1)C2)N[C@H]1CC[C@H](OCC2CCCCC2)CC1`, the MIC was over 78 µg/mL.

The compound `O=C(Nc1cccc(C(=O)N2CCOCC2)c1)NC12CC3CC(CC(C3)C1)C2` returned an MIC of over 77 µg/mL.

In turn, `O=C(NC12CC3CC(CC(C3)C1)C2)N[C@H]1CC[C@@H](Oc2ccc(F)cc2)CC1` yielded an MIC of over 20 µg/mL.

The compound `O=C(NCCCCOc1ccc(F)cc1)NC12CC3CC(CC(C3)C1)C2` displayed an MIC of 2.25 µg/mL (≈ 6.24 µM).

With `O=C(Nc1cccc(OC(=O)c2ccccc2)c1)NC12CC3CC(CC(C3)C1)C2`, the MIC came out at 2.4 µg/mL (≈ 6.15 µM).

In turn, `O=C(NC12CC3CC(CC(C3)C1)C2)N[C@H]1CC[C@H](OCc2ccccc2)CC1` gave an MIC of over 77 µg/mL.

On to `COc1ccc(NC(=O)NC23CC4CC(CC(C4)C2)C3)cc1`, for which the MIC is 1.88 µg/mL (≈ 6.26 µM).

Compound `CCOCCOCCOCCCCCNC(=O)NC12CC3CC(CC(C3)C1)C2` came in with an MIC of over 79 µg/mL.

The compound `O=C(NC12CC3CC(CC(C3)C1)C2)N[C@H]1CC[C@@H](Oc2cc(F)cc(F)c2)CC1` returned an MIC of 10 µg/mL (≈ 24.7 µM).

In turn, `COc1ccc(O[C@H]2CC[C@@H](NC(=O)NC34CC5CC(CC(C5)C3)C4)CC2)cc1` gave an MIC of over 80 µg/mL.

As for `O=C(NC12CC3CC(CC(C3)C1)C2)N[C@H]1CC[C@H](Oc2ccc(F)cc2)CC1`, the MIC was over 39 µg/mL.

Turning to `O=C(Nc1ccc(OCCN2CCOCC2)cc1)NC12CC3CC(CC(C3)C1)C2`, the MIC was over 30 µg/mL.

For `O=C(NC12CC3CC(CC(C3)C1)C2)N[C@H]1CC[C@H](Oc2ccc(Br)cc2)CC1`, the MIC was over 89 µg/mL.

The compound `COc1ccccc1NC(=O)NC12CC3CC(CC(C3)C1)C2` showed an MIC of 30 µg/mL (≈ 99.9 µM).

In turn, `CC(=O)Oc1ccc(NC(=O)NC23CC4CC(CC(C4)C2)C3)cc1` gave an MIC of 66 µg/mL (≈ 201 µM).

With `O=C(Nc1cccc(C(=O)NCCN2CCOCC2)c1)NC12CC3CC(CC(C3)C1)C2`, the MIC was over 30 µg/mL.

As to `COc1ccc(NC(=O)NC23CC4CC(CC(C4)C2)C3)cc1O`, the MIC turned out to be 32 µg/mL (≈ 101 µM).

Turning to `O=C(NC12CC3CC(CC(C3)C1)C2)N[C@H]1CC[C@H](OCc2ccc(Br)cc2)CC1`, the MIC was over 92 µg/mL.

In the case of `CC(=O)Nc1ccc(NC(=O)NC23CC4CC(CC(C4)C2)C3)cc1`, the MIC turned out to be 65 µg/mL (≈ 199 µM).

The compound `O=C(Nc1ccccc1)NC12CC3CC(CC(C3)C1)C2` gave an MIC of 14 µg/mL (≈ 51.8 µM).

For `O=C(NC12CC3CC(CC(C3)C1)C2)N[C@H]1CC[C@H](OCCCN2CCOCC2)CC1`, the MIC was over 42 µg/mL.

With `O=C(Nc1ccc(-n2ccnc2)cc1)NC12CC3CC(CC(C3)C1)C2`, the MIC was over 44 µg/mL.

With `O=C(Nc1ccc(C(=O)O)cc1)N[C@H]1CC[C@@H](Oc2ccc(F)cc2)CC1`, the MIC came out at 4.65 µg/mL (≈ 12.5 µM).

`O=C(O)CCCc1ccc(NC(=O)NC23CC4CC(CC(C4)C2)C3)cc1` returned an MIC of 36 µg/mL (≈ 101 µM).

For `CN1CCN(CCCCOc2cccc(NC(=O)NC34CC5CC(CC(C5)C3)C4)c2)CC1`, the MIC was found to be 44 µg/mL (≈ 99.9 µM).

Compound `O=C(Nc1ccccc1OCCCCN1CCOCC1)NC12CC3CC(CC(C3)C1)C2` returned an MIC of 21 µg/mL (≈ 49.1 µM).

Turning to `O=C(Nc1ccc(O)cc1)NC12CC3CC(CC(C3)C1)C2`, the MIC was determined as 57 µg/mL (≈ 199 µM).
